Test results taken from ChEMBL document CHEMBL1275581, “Detection of the pandemic O25-ST131 human virulent Escherichia coli CTX-M-15-producing clone harboring the qnrB2 and aac(6')-Ib-cr genes in a dog” (2009).
Values after ≈ are worked out from the molar mass of the structure shown.

Tests used:
Escherichia coli [1] = assay: microbe, parasite or virus in culture; details: J53
Escherichia coli [2] = assay: Antimicrobial activity against Azide-resistant Escherichia coli J53 by broth microdilution method; type: functional
Escherichia coli [3] = assay: (§1) Antimicrobial activity against beta-lactamase CTX-M-15-producing fluoroquinolone-resistant Escherichia coli FMV5825 expressing qnrB2 and aac(6')-Ib-cr and harboring gyrA Ser83Ile and Asp87Asn mutant gene and ParC Ser80Ile and Glu84Val mutant gene obtained from dog with urinary tract infection by broth microdilution method; type: functional
Escherichia coli [4] = assay: Antimicrobial activity against Escherichia coli harboring qnr gene assessed as resistant isolate; type: functional
Escherichia coli [5] = assay: as §1, with “method in presence of beta-lactamase inhibitor clavulanic acid” for “method”; type: functional; details: FMV5825, Urine
Escherichia coli [6] = assay: Antimicrobial activity against Azide-resistant Escherichia coli J53 transconjugant harboring Escherichia coli DH5alpha-5825 qnrB2 gene by broth microdilution method in presence of beta-lactamase inhibitor clavulanic acid; type: functional
Escherichia coli [7] = assay: Antimicrobial activity against Azide-resistant Escherichia coli J53 by broth microdilution method in presence of beta-lactamase inhibitor clavulanic acid; type: functional
Escherichia coli [8] = assay: Antimicrobial activity against Azide-resistant Escherichia coli J53 transconjugant harboring Escherichia coli DH5alpha-5825 qnrB2 gene by broth microdilution method in presence of beta-lactamase inhibitor Tazobactam; type: functional
Escherichia coli [9] = assay: as §1, with “method in presence of beta-lactamase inhibitor Tazobactam” for “method”; type: functional; details: FMV5825, Urine
Escherichia coli [10] = assay: Antimicrobial activity against Azide-resistant Escherichia coli J53 by broth microdilution method in presence of beta-lactamase inhibitor Tazobactam; type: functional

| Molecule | MIC (Escherichia coli [1]) [µg/mL] | MIC (Escherichia coli [2]) [µg/mL] | MIC (Escherichia coli [3]; FMV5825, Urine) [µg/mL] | other results |
| --- | --- | --- | --- | --- |
| C[C@H]1COc2c(N3CCN(C)CC3)c(F)cc3c(=O)c(C(=O)O)cn1c23.C[C@H]1COc2c(N3CCN(C)CC3)c(F)cc3c(=O)c(C(=O)O)cn1c23.O [LEVOFLOXACIN] | 0.031 | 0.031 | 32 | – |
| COCC1=C(C(=O)O)N2C(=O)[C@@H](NC(=O)/C(=N\OC)c3csc(N)n3)[C@H]2SC1 [CEFPODOXIME] | > 4 | ≤ 1 | > 4 | – |
| C[C@@H](O)[C@H]1C(=O)N2C(C(=O)O)=C(SCCNC=N)C[C@H]12 [IMIPENEM ANHYDROUS] | ≤ 1 | ≤ 1 | ≤ 1 | – |
| CO/N=C(\C(=O)N[C@@H]1C(=O)N2C(C(=O)[O-])=C(C[N+]3(C)CCCC3)CS[C@H]12)c1csc(N)n1 | > 16 | ≤ 1 | > 16 | – |
| CO[C@@]1(NC(=O)C2SC(=C(C(N)=O)C(=O)O)S2)C(=O)N2C(C(=O)O)=C(CSc3nnnn3C)CS[C@@H]21 (some centres not stated) [CEFOTETAN] | ≤ 16 | ≤ 16 | ≤ 16 | – |
| O=C(O)c1cn(C2CC2)c2cc(N3CCNCC3)c(F)cc2c1=O [CIPROFLOXACIN] | – | – | 128 (≈ 386 µM) | Activity (Escherichia coli [4]): 26% |
| C[C@H]1[C@H](NC(=O)/C(=N\OC(C)(C)C(=O)O)c2csc(N)n2)C(=O)N1S(=O)(=O)O [AZTREONAM] | > 16 | ≤ 1 | > 16 | – |
| CC1(C)S[C@@H]2[C@H](NC(=O)[C@H](N)c3ccccc3)C(=O)N2[C@H]1C(=O)O [AMPICILLIN] | > 16 | ≤ 4 | > 16 | – |
| CO[C@@]1(NC(=O)Cc2cccs2)C(=O)N2C(C(=O)O)=C(COC(N)=O)CS[C@@H]21 [CEFOXITIN] | ≤ 4 | ≤ 4 | ≤ 4 | – |
| CC(C)(O/N=C(\C(=O)N[C@@H]1C(=O)N2C(C(=O)[O-])=C(C[n+]3ccccc3)CS[C@H]12)c1csc(N)n1)C(=O)O [CEFTAZIDIME] | 64 (≈ 117 µM) | ≤ 1 | 128 (≈ 234 µM) | MIC (Escherichia coli [5]): ≤ 0.25 µg/mL; MIC (Escherichia coli [6]): ≤ 0.25 µg/mL; MIC (Escherichia coli [7]): ≤ 0.25 µg/mL |
| Cc1nnc(SCC2=C(C(=O)O)N3C(=O)[C@@H](NC(=O)Cn4cnnn4)[C@H]3SC2)s1 [CEFAZOLIN] | > 16 | ≤ 16 | > 16 | – |
| GENTAMICIN | – | 0.25 | – | MIC (Escherichia coli [3]; Urine): 32 µg/mL |
| CC1(C)S[C@@H]2[C@H](NC(=O)[C@H](N)c3ccc(O)cc3)C(=O)N2[C@H]1C(=O)O [AMOXICILLIN] | – | – | – | MIC (Escherichia coli [5]): 8 µg/mL; MIC (Escherichia coli [6]): 8 µg/mL; MIC (Escherichia coli [7]): 2 µg/mL |
| C[C@@H](O)[C@H]1C(=O)N2C(C(=O)O)=C(S[C@@H]3CN[C@H](C(=O)Nc4cccc(C(=O)O)c4)C3)[C@H](C)[C@H]12 | ≤ 0.5 | ≤ 0.5 | ≤ 0.5 | – |
| CCN1CCN(C(=O)N[C@@H](C(=O)N[C@@H]2C(=O)N3[C@@H]2SC(C)(C)[C@@H]3C(=O)O)c2ccccc2)C(=O)C1=O [PIPERACILLIN] | > 64 | ≤ 8 | > 64 | MIC (Escherichia coli [8]): ≤ 8 µg/mL; MIC (Escherichia coli [9]): ≤ 8 µg/mL; MIC (Escherichia coli [10]): ≤ 8 µg/mL |
| NCC[C@H](O)C(=O)N[C@@H]1C[C@H](N)[C@@H](O[C@H]2O[C@H](CN)[C@@H](O)[C@H](O)[C@H]2O)[C@H](O)[C@H]1O[C@H]1O[C@H](CO)[C@@H](O)[C@H](N)[C@H]1O [AMIKACIN] | 2 (≈ 3.42 µM) | 0.5 (≈ 0.854 µM) | 16 (≈ 27.3 µM) | – |
| NC[C@H]1O[C@H](O[C@H]2[C@H](O)[C@@H](O[C@H]3O[C@H](CO)[C@@H](O)[C@H](N)[C@H]3O)[C@H](N)C[C@@H]2N)[C@H](N)C[C@@H]1O [TOBRAMYCIN] | > 8 | ≤ 2 | > 8 | – |
| CO/N=C(\C(=O)N[C@@H]1C(=O)N2C(C(=O)O)=C(COC(N)=O)CS[C@H]12)c1ccco1 [CEFUROXIME] | > 16 | 1 (≈ 2.36 µM) | > 16 | – |
| CC1(C)S[C@@H]2[C@H](NC(=O)[C@H](C(=O)O)c3ccsc3)C(=O)N2[C@H]1C(=O)O [TICARCILLIN] | > 64 | ≤ 16 | > 64 | – |
| C[C@@H](O)[C@H]1C(=O)N2C(C(=O)O)=C(S[C@@H]3CN[C@H](C(=O)N(C)C)C3)[C@H](C)[C@H]12 [MEROPENEM] | ≤ 2 | ≤ 2 | ≤ 2 | – |
| CCn1cc(C(=O)O)c(=O)c2ccc(C)nc21 [NALIDIXIC ACID] | 16 (≈ 68.9 µM) | 4 (≈ 17.2 µM) | > 256 | Activity (Escherichia coli [4]): 34% |
| CCn1cc(C(=O)O)c(=O)c2cc(F)c(N3CCNCC3)cc21 [NORFLOXACIN] | 0.5 (≈ 1.57 µM) | 0.062 (≈ 0.194 µM) | 256 (≈ 802 µM) | – |
| CO/N=C(\C(=O)N[C@@H]1C(=O)N2C(C(=O)O)=C(COC(C)=O)CS[C@H]12)c1csc(N)n1 [CEFOTAXIME] | > 64 | ≤ 1 | > 64 | MIC (Escherichia coli [5]): ≤ 0.25 µg/mL; MIC (Escherichia coli [6]): ≤ 0.25 µg/mL; MIC (Escherichia coli [7]): ≤ 0.25 µg/mL |
